ChEMBL document CHEMBL5137044, “Expansion of the S-CN-DABO scaffold to exploit the impact on inhibitory activities against the non-nucleoside HIV-1 reverse transcriptase” (Eur J Med Chem, 2022)

Assays:
[1] = tested on: Human immunodeficiency virus 1; experiment: Antiviral activity against […] HIV-1 infected in human MT4 cells assessed as reduction in virus-induced cytopathic effect incubated for 5 days by MTT assay; type: functional, organism-based; details: Human immunodeficiency virus 1, MT4, 120 h
[2] = Cytotoxicity against human MT4 cells assessed as cell growth inhibition incubated for 5 days by MTT assay; type: toxicity, cell-based; details: time 5 day
[3] = Selectivity index, ratio of CC50 for human MT4 cells to EC50 for antiviral activity against NNRTI resistant HIV-1 infected in human MT4 cells; type: toxicity, cell-based; details: read-out: Ratio CC50/EC50
[4] = tested on: Human immunodeficiency virus 1; experiment: Antiviral activity against drug-resistant HIV-1 L100I mutant infected in human MT4 cells assessed as reduction in virus-induced cytopathic effect incubated for 5 days by MTT assay; type: functional, organism-based; details: Human immunodeficiency virus 1, L100I mutant, MT4, 120 h
[5] = tested on: Human immunodeficiency virus 1; experiment: Antiviral activity against drug-resistant HIV-1 K103 N mutant infected in human MT4 cells assessed as reduction in virus-induced cytopathic effect incubated for 5 days by MTT assay; type: functional, organism-based; details: Human immunodeficiency virus 1, K103 N mutant, MT4, 120 h
[6] = tested on: Human immunodeficiency virus 1; experiment: Antiviral activity against drug-resistant HIV-1 Y181C mutant infected in human MT4 cells assessed as reduction in virus-induced cytopathic effect incubated for 5 days by MTT assay; type: functional, organism-based; details: Human immunodeficiency virus 1, Y181C mutant, MT4, 120 h
[7] = tested on: Human immunodeficiency virus 1; experiment: Antiviral activity against drug-resistant HIV-1 Y188L mutant infected in human MT4 cells assessed as reduction in virus-induced cytopathic effect incubated for 5 days by MTT assay; type: functional, organism-based; details: Human immunodeficiency virus 1, Y188L mutant, MT4, 120 h
[8] = tested on: Human immunodeficiency virus 1; experiment: Antiviral activity against drug-resistant HIV-1 E138K mutant infected in human MT4 cells assessed as reduction in virus-induced cytopathic effect incubated for 5 days by MTT assay; type: functional, organism-based; details: Human immunodeficiency virus 1, E138K mutant, MT4, 120 h
[9] = molecular target: Human immunodeficiency virus type 1 reverse transcriptase (Human immunodeficiency virus 1, UniProt Q72547); experiment: Inhibition of recombinant wild-type p66/p51 HIV-1 reverse transcriptase incubated for 40 mins by picogreen dye-based spectrofluorometric analysis
[10] = Fold resistance, ratio of EC50 for antiviral activity against drug-resistant HIV-1 L100I mutant infected in human MT4 cells to EC50 for antiviral activity against […] HIV-1 infected in human MT4 cells; type: functional
[11] = Fold resistance, ratio of EC50 for antiviral activity against drug-resistant HIV-1 K103 N mutant infected in human MT4 cells to EC50 for antiviral activity against […] HIV-1 infected in human MT4 cells; type: functional
[12] = Fold resistance, ratio of EC50 for antiviral activity against drug-resistant HIV-1 Y181C mutant infected in human MT4 cells to EC50 for antiviral activity against […] HIV-1 infected in human MT4 cells; type: functional
[13] = Fold resistance, ratio of EC50 for antiviral activity against drug-resistant HIV-1 Y188L mutant infected in human MT4 cells to EC50 for antiviral activity against […] HIV-1 infected in human MT4 cells; type: functional
[14] = Fold resistance, ratio of EC50 for antiviral activity against drug-resistant HIV-1 E138K mutant infected in human MT4 cells to EC50 for antiviral activity against […] HIV-1 infected in human MT4 cells; type: functional

| SMILES | EC50 [1] [µM] | CC50 at 120 h [2] [µM] | selectivity ratio [3] | EC50 [4] [µM] | EC50 [5] [µM] | EC50 [6] [µM] | EC50 [7] [µM] | EC50 [8] [µM] | IC50 [9] [µM] | Ratio EC50 [10] | Ratio EC50 [11] | Ratio EC50 [12] | Ratio EC50 [13] | Ratio EC50 [14] |
| --- | --- | --- | --- | --- | --- | --- | --- | --- | --- | --- | --- | --- | --- | --- |
| Cc1cccc(C)c1C(C#N)c1nc(SC(C)C)[nH]c(=O)c1C (stereo unspecified) | 0.93 | 68.1 | 73 | > 68.1 | > 68.1 | > 68.1 | > 68.1 | 3.48 | 6.59 | >73 | >73 | >73 | >73 | 4 |
| Cc1c(C(C#N)c2ccc(Cl)cc2)nc(SC(C)C)[nH]c1=O (stereo unspecified) | 1.26 | 70.2 | 56 | > 14.4 | > 70.2 | > 70.2 | > 70.2 | 4.19 | 3.37 | >11 | >56 | >56 | >56 | 3 |
| Cc1ccccc1C(C#N)c1nc(SC(C)C)[nH]c(=O)c1C (stereo unspecified) | 0.116 | 111 | 960 | 3.23 | 48.2 | 5.52 | 63.4 | 0.26 | 0.68 | 28 | 416 | 48 | 546 | 2 |
| Cc1c(C(C#N)c2ccc(F)cc2)nc(SC(C)C)[nH]c1=O (stereo unspecified) | 3.98 | 113 | 28 | 63.5 | > 113 | > 113 | > 113 | 12.6 | 14.3 | 16 | >28 | >28 | >28 | 3 |
| Cc1c(C(C#N)c2ccccn2)nc(SC(C)C)[nH]c1=O (stereo unspecified) | 1.47 | 304 | 207 | 45.9 | > 304 | 51.2 | > 304 | 3.8 | 9.4 | 31 | >207 | 35 | >207 | 3 |
| Cc1c(C(C#N)c2c(Cl)cccc2Cl)nc(SC(C)C)[nH]c1=O (stereo unspecified) | 0.083 | 62.2 | 749 | 3.38 | 6.13 | 3.99 | > 62.2 | 0.22 | 0.466 | 41 | >74 | 48 | >750 | 3 |
| Cc1c(C(C#N)c2ccc(C(F)(F)F)cc2)nc(SC(C)C)[nH]c1=O (stereo unspecified) | 5.3 | 39.8 | 8 | > 39.8 | > 39.8 | > 39.8 | > 39.8 | 9.11 | 13.3 | >8 | >8 | >8 | >8 | 2 |
| Cc1ccnc2c1NC(=O)c1cccnc1N2C1CC1 [NEVIRAPINE] | 0.17 | – | – | 2.57 | 8.1 | 7.71 | > 15 | 0.198 | – | – | – | – | – | – |
| COc1ccc(C(C#N)c2nc(SC(C)C)[nH]c(=O)c2C)cc1 (stereo unspecified) | 2.92 | 37.1 | 13 | 9.7 | > 37.1 | > 37.1 | > 37.1 | 4.29 | 20.7 | 3 | >13 | >13 | >13 | 1 |
| Cc1c(C(C#N)c2cc(C(F)(F)F)cc(C(F)(F)F)c2)nc(SC(C)C)[nH]c1=O (stereo unspecified) | 27.4 | 287 | – | > 278 | > 287 | 186 | > 287 | 224 | 55.1 | >10 | >10 | 7 | >10 | 8 |
| Cc1cc(C#N)cc(C)c1Oc1nc(Nc2ccc(C#N)cc2)nc(N)c1Br [ETRAVIRINE] | – | 4.6 | > 1620 | 0.0115 | 0.0034 | 0.0162 | – | 0.0092 | – | 4 | 1 | 6 | 7 | 3 |
| Cc1c(C(C#N)c2cc(F)cc(Cl)c2)nc(SC(C)C)[nH]c1=O (stereo unspecified) | 0.38 | 139 | 363 | 19.1 | 47.2 | 12.5 | > 139 | 1.99 | 0.716 | 50 | 124 | 33 | >365 | 5 |
| O=C1Nc2ccc(Cl)cc2[C@@](C#CC2CC2)(C(F)(F)F)O1 [EFAVIRENZ] | – | – | – | 0.0371 | 0.0942 | 0.0071 | 0.205 | 0.0062 | – | – | – | – | – | – |
| Cc1cn([C@H]2C[C@H](N=[N+]=[N-])[C@@H](CO)O2)c(=O)[nH]c1=O [ZIDOVUDINE] | 0.0229 | – | > 309 | 0.0084 | 0.0287 | 0.0242 | 0.0108 | 0.0268 | – | 0.4 | 1 | 1 | 0.5 | 1 |
| Cc1c(C(C#N)c2ccc(-c3ccccc3)cc2)nc(SC(C)C)[nH]c1=O (stereo unspecified) | > 30.5 | 30.5 | < 1 | – | – | – | – | – | – | – | – | – | – | – |
